Where a name gives a salt, the structure may show the parent alone. Read-outs that look alike come from different tables or passages of the source.
Legend:
human M3 receptor = molecular target: T1, human M3 receptor (Homo sapiens, UniProt P20309); assay: Test for binding to human M3 receptor
T1 construct: expressed in transfected cells; host or cells: CHO cells
Description: A solution of cryopreserved CHO cells expressing human M3 receptor was diluted with a buffer (50 mM tris-hydrochloride containing 0.5 mM of EDTA, pH 7.4) to obtain 5.0×10^5 of cells/mL and used as a crude membrane sample.
[N-methyl-^3H]-(−)-Scopolamine methyl chloride (GE Healthcare Japan Corporation) was diluted with 50 mM of tris-hydrochloride containing 0.5 mM of EDTA (pH 7.4), a test substance and 250 μL of the crude membrane sample solution were added to 250 μL of the mixture, and the mixture was incubated at room temperature for 60 minutes. […] The glass fiber filter paper was pretreated with a 0.1% polyethylenimine solution for 4 hours or longer to minimize non-specific binding. The filter collecting membrane components was transferred to a small-size plastic vial containing 3 mL of Pico-Fluor, and the radioactivity was measured with a liquid scintillation counter (Tri-Carb 2900TR or 2300TR; Perkin Elmer).
The effect of binding to the M3 receptor was calculated as the affinity (Ki) of the test substance for the M3 receptor from a 50% binding dose (IC50) and the affinity (Kd) of [N-methyl-^3H]-(−)-Scopolamine methyl chloride for the M3 receptor.

substance P receptor = molecular target: T2, substance P receptor (Cavia porcellus, UniProt P30547); assay: Test for binding to guinea-pig substance P receptor (crude lung membrane sample); conditions: crude guinea-pig lung membrane sample, [3H]substance P; Ki from IC50 and Kd; read-out: Ki
T2 construct: A preparation of a crude lung membrane sample was prepared; from tissue; host or cells: guinea-pig lung (crude membrane sample)
Description: A preparation of a crude lung membrane sample was prepared, and a test for binding of a test substance to the sample was performed according to the method described in EP0336230A2.
The binding effect of the test substance to a substance P receptor was calculated as an affinity (Ki) of the test substance for the substance P receptor from a 50% binding concentration (IC50) and an affinity (Kd) of [^3H]substance P for the substance P receptor.

muscarine M3 receptor = assay: Effect of suppressing methacholine-induced airway contraction (in vivo, intratracheal administration); set-up: species or system guinea pig; conditions: guinea pigs, intratracheal administration 60 minutes before 30 μg/kg i.v. methacholine; AUC of increase in airway pressure over 10 minutes
Description: Using healthy guinea pigs (body weight, 350 to 550 g; Hartley male guinea pigs), the effect of suppressing airway contraction induced by methacholine, which is a muscarine receptor agonist, was examined by a modified method of Konzett-Roessler (Naunyn-Schmiedebergs Arch. Exp. Pathol. Pharmakol. 195, 71 [1940]) using airway pressure as an indicator.
A tracheal cannula and a venous cannula were attached to a guinea pig anesthetized with pentobarbital (50 mg/mL of solution, 0.40 to 0.50 mL/body, subcutaneous administration). An arterial cannula filled with heparin-containing physiological saline (100 U/mL) was further attached, and blood pressure and heart rate were monitored via an amplifier and an instantaneous heart rate meter. Subsequently, gallamine (20 mg/body, intravenous administration) was administered to terminate spontaneous breathing, and then 10 mL/kg of positive pressure breathing (Ugo-Basile Biological Research Apparatus, Cat. No. 7025) was rapidly performed at 60 times/min. The airway pressure during artificial breathing was detected with a pressure transducer (TP-200T or TP-400T; Nihon Kohden Corporation) attached to a side branch of the tracheal cannula, amplified (AP-601G; Nihon Kohden Corporation), and recorded in a recorder. After the airway pressure, blood pressure, and heart rate were stabilized, 30 μg/kg of methacholine was intravenously administered from the venous cannula to induce airway contraction, and the airway pressure was measured for the following 10 minutes.
A test substance was dissolved in 5% glucose solution, and a 0.5 mL/kg solution was administered intratracheally with an intratracheal administration apparatus (model 1A-1B; Penn-Century, Inc.) 60 minutes before stimulation with methacholine.
The AUC of increase in the airway pressure over 10 minutes after administration of methacholine was measured as the intensity of methacholine-induced airway contraction and calculated as an ID50 value from the inhibition rate based on the value of the control group (a 5% glucose solution intratracheal administration group).

human NK2 receptor = molecular target: T3, human NK2 receptor (Homo sapiens, UniProt P21452); assay: Test for binding to human NK2 receptor
T3 construct: expressed in transfected cells; host or cells: COS cells
T3 sequence (P21452 1-398): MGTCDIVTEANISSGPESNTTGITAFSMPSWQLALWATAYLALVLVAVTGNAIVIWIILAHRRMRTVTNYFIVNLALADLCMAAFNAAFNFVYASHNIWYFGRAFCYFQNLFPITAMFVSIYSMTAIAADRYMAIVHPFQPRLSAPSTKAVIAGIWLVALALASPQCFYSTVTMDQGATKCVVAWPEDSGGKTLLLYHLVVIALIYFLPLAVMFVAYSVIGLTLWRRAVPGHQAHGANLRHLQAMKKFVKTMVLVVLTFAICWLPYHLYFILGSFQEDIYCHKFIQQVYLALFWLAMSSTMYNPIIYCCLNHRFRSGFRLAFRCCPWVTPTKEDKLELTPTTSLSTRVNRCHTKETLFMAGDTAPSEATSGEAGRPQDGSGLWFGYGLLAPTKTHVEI
Description: A solution of cryopreserved COS cells expressing human NK2 receptor was diluted with a buffer (50 mM tris-hydrochloride containing 0.04% of bovine serum albumin [BSA], pH 7.4) to obtain a concentration of 5.0×10^5 cells/mL and used as a crude membrane sample.
[^3H]SR 48968 (GE Healthcare Japan Corporation) was diluted with a mixture of 50 mM of tris-hydrochloride (pH 7.4), 6 mM of manganese chloride tetrahydrate, 800 μg/mL of BSA, 8 μg/mL of chymostatin, 8 μg/mL of leupeptin, 80 μg/mL of bacitracin, and 20 μg/mL of phosphoramidon. […] After the reaction, the membrane components were collected on a GF/B glass fiber filter paper (Whatman; Biomedical Research and Development Laboratories, Inc.) with an automated filtration system (Brandel; Biomedical Research and Development Laboratories, Inc.). The glass fiber filter paper was pretreated with a 0.1% polyethylenimine solution for 4 hours or longer to minimize non-specific binding. The filter collecting the membrane components was transferred to a small-size plastic vial containing 3 mL of Pico-Fluor, and the radioactivity was measured with a liquid scintillation counter (Tri-Carb 2900TR or 2300TR; Perkin Elmer).
The effect of binding to the NK2 receptor was calculated as the affinity (Ki) of the test substance for the NK2 receptor from a 50% binding dose (IC50) and the affinity (Kd) of [^3H]SR 48968 for the NK2 receptor.

[1] = CHO cells expressing human M3 receptor, [N-methyl-3H]-(-)-Scopolamine methyl chloride 0.5 nM, Ki from IC50 and Kd, read-out: Ki
[2] = COS cells expressing human NK2 receptor, [3H]SR 48968 1 nM, Ki from IC50 and Kd, read-out: Ki

T1 sequence (P20309 whole entry): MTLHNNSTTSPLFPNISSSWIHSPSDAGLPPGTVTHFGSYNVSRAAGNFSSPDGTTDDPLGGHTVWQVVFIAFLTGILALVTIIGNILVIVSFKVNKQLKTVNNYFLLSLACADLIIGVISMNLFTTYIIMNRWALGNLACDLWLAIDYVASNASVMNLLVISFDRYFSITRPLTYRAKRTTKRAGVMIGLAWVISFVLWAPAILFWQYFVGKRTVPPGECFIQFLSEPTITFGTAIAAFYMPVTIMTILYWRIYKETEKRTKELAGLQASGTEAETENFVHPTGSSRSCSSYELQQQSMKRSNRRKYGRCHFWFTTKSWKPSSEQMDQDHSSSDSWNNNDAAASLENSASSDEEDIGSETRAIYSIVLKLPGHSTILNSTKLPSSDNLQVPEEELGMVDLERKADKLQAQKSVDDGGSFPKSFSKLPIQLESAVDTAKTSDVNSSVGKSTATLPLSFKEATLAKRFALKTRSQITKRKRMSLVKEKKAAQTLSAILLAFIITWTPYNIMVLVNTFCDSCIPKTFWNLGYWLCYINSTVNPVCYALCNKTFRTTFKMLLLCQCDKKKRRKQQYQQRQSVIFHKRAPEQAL
T2 sequence (P30547 whole entry): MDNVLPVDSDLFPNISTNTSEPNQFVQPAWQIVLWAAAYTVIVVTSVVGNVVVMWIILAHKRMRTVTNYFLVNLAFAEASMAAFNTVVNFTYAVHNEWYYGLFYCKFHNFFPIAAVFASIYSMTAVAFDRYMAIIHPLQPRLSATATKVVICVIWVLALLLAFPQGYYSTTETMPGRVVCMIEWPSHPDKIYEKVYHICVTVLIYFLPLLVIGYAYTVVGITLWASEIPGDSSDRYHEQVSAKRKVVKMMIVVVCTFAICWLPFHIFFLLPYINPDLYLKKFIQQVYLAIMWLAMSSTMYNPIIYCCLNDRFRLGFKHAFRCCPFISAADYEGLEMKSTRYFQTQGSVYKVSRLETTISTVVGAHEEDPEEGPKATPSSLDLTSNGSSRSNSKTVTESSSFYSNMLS

CN(CCN1CCC(OC(=O)Nc2ccccc2-c2ccccc2)CC1)C(=O)CCCCCNc1nc(CC(=O)N(C)CCCN(C)C(=O)CO[C@H]2Cc3ccccc3C23CCN(CC[C@@]2(c4ccc(F)cc4)CN(C(=O)c4cc(C(F)(F)F)cc(C(F)(F)F)c4)CO2)CC3)cs1 [Example 88, 1-{2-[{6-[(4-{2-[{3-[({[(2S)-1′-{2-[(5R)-3-[3,5-Bis(trifluoromethyl)benzoyl]-5-(4-fluorophenyl)-1,3-oxazolidin-5-yl]ethyl}-2,3-dihydrospiro[indene-1,4′-piperidin]-2-yl]oxy}acetyl)(methyl)amino]propyl}(methyl)amino]-2-oxoethyl}-1,3-thiazol-2-yl)amino]hexanoyl}(methyl)amino]ethyl}piperidin-4-yl biphenyl-2-ylcarbamate trihydrochloride]
Ki (human M3 receptor): 0.31 nM | Ki (substance P receptor): 1.1 nM | ID50 (muscarine M3 receptor): 6.0 µg/kg | Ki (human NK2 receptor): 0.72 nM

Cc1nc(N(C)CCCCCC(=O)N(C)CCN2CCC(OC(=O)Nc3ccccc3-c3ccccc3)CC2)sc1C(=O)N(C)CCCN(C)C(=O)CO[C@H]1Cc2ccccc2C12CCN(CC[C@@]1(c3ccc(F)cc3)CN(C(=O)c3cc(C(F)(F)F)cc(C(F)(F)F)c3)CO1)CC2 [Example 106, 1-{2-[{6-[{5-[{3-[({[(2S)-1′-{2-[(5R)-3-[3,5-Bis(trifluoromethyl)benzoyl]-5-(4-fluorophenyl)-1,3-oxazolidin-5-yl]ethyl}-2,3-dihydrospiro[indene-1,4′-piperidin]-2-yl]oxy}acetyl)(methyl)amino]propyl}(methyl)carbamoyl]-4-methyl-1,3-thiazol-2-yl}(methyl)amino]hexanoyl}(methyl)amino]ethyl}piperidin-4-yl biphenyl-2-ylcarbamate trihydrochloride]
Ki (human M3 receptor): 1.3 nM | Ki (substance P receptor): 3.1 nM | Ki (human NK2 receptor): 0.34 nM

Cc1nc(N(C)CCCCCC(=O)N(C)CCN2CCC(OC(=O)Nc3ccccc3-c3ccccc3)CC2)sc1C(=O)N(C)CCN(C)C(=O)CO[C@H]1Cc2ccccc2C12CCN(CC[C@@]1(c3ccc(F)cc3)CN(C(=O)c3cc(C(F)(F)F)cc(C(F)(F)F)c3)CO1)CC2 [Example 108, 1-{2-[{6-[{5-[{2-[({[(2S)-1′-{2-[(5R)-3-[3,5-Bis(trifluoromethyl)benzoyl]-5-(4-fluorophenyl)-1,3-oxazolidin-5-yl]ethyl}-2,3-dihydrospiro[indene-1,4′-piperidin]-2-yl]oxy}acetyl)(methyl)amino]ethyl}(methyl)carbamoyl]-4-methyl-1,3-thiazol-2-yl}(methyl)amino]hexanoyl}(methyl)amino]ethyl}piperidin-4-yl biphenyl-2-ylcarbamate trihydrochloride]
Ki (human M3 receptor): 3 nM | Ki (substance P receptor): 1.3 nM | Ki (human NK2 receptor): 0.79 nM

CN(CCN1CCC(OC(=O)Nc2ccccc2-c2ccccc2)CC1)C(=O)CCCCCNc1ccc(C(=O)N(C)CCCN(C)C(=O)CO[C@H]2Cc3ccccc3C23CCN(CC[C@@]2(c4ccc(F)cc4)CN(C(=O)c4cc(C(F)(F)F)cc(C(F)(F)F)c4)CO2)CC3)cc1F [Example 13, 1-(2-{[6-({4-[{3-[({[(2S)-1′-{2-[(5R)-3-[3,5-Bis(trifluoromethyl)benzoyl]-5-(4-fluorophenyl)-1,3-oxazolidin-5-yl]ethyl}-2,3-dihydrospiro[indene-1,4′-piperidin]-2-yl]oxy}acetyl)(methyl)amino]propyl}(methyl)carbamoyl]-2-fluorophenyl}amino)hexanoyl](methyl)amino}ethyl)piperidin-4-yl biphenyl-2-ylcarbamate trihydrochloride]
Ki (human M3 receptor): 1.2 nM | Ki (substance P receptor): 2.6 nM | Ki (human NK2 receptor): 0.65 nM

CN(CCN1CCC(OC(=O)Nc2ccccc2-c2ccccc2)CC1)C(=O)CCCCCNCc1ccc(C(=O)N(C)CCCN(C)C(=O)CO[C@H]2Cc3ccccc3C23CCN(CC[C@@]2(c4ccc(F)cc4)CN(C(=O)c4cc(C(F)(F)F)cc(C(F)(F)F)c4)CO2)CC3)cc1 [Example 75, 1-(2-{[6-({4-[{3-[({[(2S)-1-{2-[(5R)-3-[3,5-Bis(trifluoromethyl)benzoyl]-5-(4-fluorophenyl)-1,3-oxazolidin-5-yl]ethyl}-2,3-dihydrospiro[indene-1,4′-piperidin]-2-yl]oxy}acetyl)(methyl)amino]propyl}(methyl)carbamoyl]benzyl}amino)hexanoyl](methyl)amino}ethyl)piperidin-4-yl biphenyl-2-ylcarbamate]
Ki (human M3 receptor; [1]): 0.52 nM | Ki (substance P receptor): 1 nM | Ki (human NK2 receptor; [2]): 0.25 nM

CN(CCN1CCC(OC(=O)Nc2ccccc2-c2ccccc2)CC1)C(=O)CCCC1CCN(c2ccc(C(=O)N(C)CCCN(C)C(=O)CO[C@H]3Cc4ccccc4C34CCN(CC[C@@]3(c5ccc(F)cc5)CN(C(=O)c5cc(C(F)(F)F)cc(C(F)(F)F)c5)CO3)CC4)cc2)CC1 [Example 66, 1-(2-{[4-(1-{4-[{3-[({[(2S)-1′-{2-[(5R)-3-[3,5-Bis(trifluoromethyl)benzoyl]-5-(4-fluorophenyl)-1,3-oxazolidin-5-yl]ethyl}-2,3-dihydrospiro[indene-1,4′-piperidin]-2-yl]oxy}acetyl)(methyl)amino]propyl}methyl)carbamoyl]phenyl}piperidin-4-yl)butanoyl](methyl)amino}ethyl)piperidin-4-yl biphenyl-2-ylcarbamate trihydrochloride]
Ki (human M3 receptor; [1]): 1.5 nM | Ki (substance P receptor): 2.1 nM | Ki (human NK2 receptor; [2]): 0.86 nM

From patent US8476253B2, “Amide derivative” (Daiichi Sankyo Company, Limited, priority 2009, dated 2013)
